How the values were obtained:
E. cloacae NCTC 11936 = assay: Nitroreductase substrate in Columbia medium, growth and colony color; type: cell-based; settings: 40 mg substrate in 400 ml Columbia medium, 24 hours at 37° C., colonies examined visually
Experimental: (§1) 40 mg of substrate were dissolved in 4 ml of dimethylsulfoxide and added to 400 ml of previously autoclaved Columbia medium. The medium was distributed in Petri dishes 90 mm in diameter at the rate of 20 ml per dish. Ten strains of microorganisms obtained from collections and belonging to various species of bacteria and yeasts are inoculated as spots of about 10 000 colony forming units. The media are incubated for 24 hours at 37° C. and then the colonies formed are examined visually.

P. rettgeri NCTC 7475 = assay: as above; type: cell-based; settings: 40 mg substrate in 400 ml Columbia medium, 24 hours at 37° C., colonies examined visually
Experimental: as §1

- Color (E. cloacae NCTC 11936): Pale pink
- Color (P. rettgeri NCTC 7475): Pale pink
Compound: C[N+]1=C(C=Cc2ccc([N+](=O)[O-])cc2)C(C)(C)c2ccccc21.[I-] [Iodinated 2-(4-nitrostyryl)-1,3,3-trimethylindolinium]

— patent publication US8883437B2, “Nitroreductase enzymatic substrates” (bioMérieux S.A., priority 2010, dated 2014)
